Assay results published in ChEMBL document CHEMBL1130512, “Structure-based design of non-peptidic pyridone aldehydes as inhibitors of interleukin-1 converting enzyme” (Bioorg Med Chem Lett, 1997).
Residues, ends and D or L forms follow the SMILES beside them. *: point of attachment. Hydrocinnamoyl = O=C(CCc1ccccc1)*; Cbz = O=C(OCc1ccccc1)*

What follows are compounds tested against T1, Caspase-1 (Homo sapiens, UniProt P29466) (assay: Inhibition of IL-1 beta converting enzyme).
T1 sequence (P29466 whole entry): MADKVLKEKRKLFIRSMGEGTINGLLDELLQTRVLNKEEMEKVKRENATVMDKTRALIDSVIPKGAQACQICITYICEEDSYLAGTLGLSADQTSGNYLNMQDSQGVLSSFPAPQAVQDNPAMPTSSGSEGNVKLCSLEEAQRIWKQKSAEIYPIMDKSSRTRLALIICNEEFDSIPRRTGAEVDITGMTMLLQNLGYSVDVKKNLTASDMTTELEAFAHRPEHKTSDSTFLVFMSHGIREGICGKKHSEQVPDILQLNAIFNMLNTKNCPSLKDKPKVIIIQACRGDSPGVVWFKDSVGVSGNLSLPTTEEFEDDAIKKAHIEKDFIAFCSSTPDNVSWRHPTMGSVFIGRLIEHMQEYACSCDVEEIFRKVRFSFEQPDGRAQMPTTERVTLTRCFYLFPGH

Row | SMILES | Ki [nM]
1 | O=C[C@H](CC(=O)O)NC(=O)Cn1c(-c2ccccc2)ccc(NC(=O)CCc2ccccc2)c1=O | 900
2 | CC(C)[C@H](NC(=O)CCc1ccccc1)C(=O)N[C@@H](C)C(=O)N[C@@H](CC(=O)O)C(=O)O (Hydrocinnamoyl-Val-Ala-Asp-OH) | 54
3 | CC(=O)N[C@@H](Cc1ccc(O)cc1)C(=O)N[C@H](C(=O)N[C@@H](C)C(=O)N[C@@H](CC(=O)O)C(=O)O)C(C)C | 9
4 | CC(C)[C@H](NC(=O)OCc1ccccc1)C(=O)NCC(=O)N[C@@H](CC(=O)O)C(=O)O (Cbz-Val-Gly-Asp-OH) | 1300
5 | CC(C)[C@H](NC(=O)OCc1ccccc1)C(=O)N[C@@H](C)C(=O)N[C@@H](CC(=O)O)C(=O)O (Cbz-Val-Ala-Asp-OH) | 55
6 | CC(=O)NC(C(=O)Nc1ccc(Cc2ccccc2)n(CC(=O)N[C@H](C=O)CC(=O)O)c1=O)c1ccc(O)cc1 (stereo partly specified) | 54
